Measurements reported in patent publication US20090233943A9, “NEW COMPOUNDS 835” (priority 2007, published 2009).

Biological target: T1, human β-Secretase (soluble part, AA 1-AA 460, sBACE-Fc) (Homo sapiens, UniProt P56817)
T1 construct: The soluble part of the human β-Secretase (AA 1-AA 460) was cloned; made in house
Assay: TR-FRET assay (β-secretase enzyme)
Type: biochemical
Method: The enzyme used in the IGEN Cleavage-, Fluorescent-, TR-FRET- and BiaCore assays is described as follows:
The soluble part of the human β-Secretase (AA 1-AA 460) was cloned into the ASP2-Fc10-1-IRES-GFP-neoK mammalian expression vector. The gene was fused to the Fc domain of IgG1 (affinity tag) and stably cloned into SEEK 293 cells. Purified sBACE-Fc is stored in Tris buffer, pH 9.2 and has a purity of 95%.
Enzyme was diluted to 6 μg/mL and the substrate (Europium)[…](Qsy7) to 200 nM in reaction buffer (NaAcetate, chaps, triton x-100, EDTA pH 4.5). Compounds were diluted to the desired concentration in dimethyl sulfoxide (final dimethyl sulfoxide concentration in assay is 5%). […] Enzyme (9 μL) and 1 μL of compound in dimethyl sulfoxide was added to the plate, mixed and pre-incubated for 10 min. Substrate (10 μL) was added and the reaction proceeded in the dark for 15 min at RT. The reaction was stopped with the addition of 7 μL NaAcetate, pH 9. The fluorescence of the product was measured on a Victor II plate reader with an excitation wavelength of 340 nm and an emission wavelength of 615 nm. […] The dimethyl sulfoxide control defined the 100% activity level and 0% activity was defined by exclusion of the enzyme (using reaction buffer instead).

T1 sequence (P56817 22-460): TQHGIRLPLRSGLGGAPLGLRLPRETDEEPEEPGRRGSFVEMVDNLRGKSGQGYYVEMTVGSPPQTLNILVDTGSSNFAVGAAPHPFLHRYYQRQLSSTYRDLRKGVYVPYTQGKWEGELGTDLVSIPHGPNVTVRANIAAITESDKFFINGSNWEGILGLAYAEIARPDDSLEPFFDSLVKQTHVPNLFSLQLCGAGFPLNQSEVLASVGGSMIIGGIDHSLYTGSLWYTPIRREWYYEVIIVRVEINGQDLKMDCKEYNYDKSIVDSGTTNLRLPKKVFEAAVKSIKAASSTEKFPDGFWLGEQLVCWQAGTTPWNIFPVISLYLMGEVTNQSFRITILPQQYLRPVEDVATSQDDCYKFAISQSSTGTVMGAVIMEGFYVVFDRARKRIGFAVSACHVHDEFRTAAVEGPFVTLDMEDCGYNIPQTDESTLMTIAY

| Compound | IC50 |
| --- | --- |
| CN1C(=O)C(c2ccc(S(F)(F)(F)(F)F)cc2)(c2cccc(-c3cscn3)c2)N=C1N (stereo not shown) [Example 43, 2-amino-3-methyl-5-[4-(pentafluoro-λ^6-sulfanyl)phenyl]-5-[3-(1,3-thiazol-4-yl)phenyl]-3,5-dihydro-4H-imidazol-4-one] | 673 nM |
| CN1C(=O)C(c2ccc(S(F)(F)(F)(F)F)cc2)(c2cccc(-c3cn(C)cn3)c2)N=C1N (stereo not shown) [Example 44, 2-amino-3-methyl-5-[3-(1-methyl-1H-imidazol-4-yl)phenyl]-5-[4-(pentafluoro-λ^6-sulfanyl)phenyl]-3,5-dihydro-4H-imidazol-4-one] | 643 nM |
| CN1C(=O)C(c2ccc(S(F)(F)(F)(F)F)cc2)(c2cccc(-c3cncc(C#N)c3)c2)N=C1N (stereo not shown) [Example 45, 5-(3-{2-amino-1-methyl-5-oxo-4-[4-(pentafluoro-λ^6-sulfanyl)phenyl]-4,5-dihydro-1H-imidazol-4-yl}phenyl)pyridine-3-carbonitrile] | 59 nM |
| CN1C(=O)C(c2ccc(S(F)(F)(F)(F)F)cc2)(c2cccc(-c3cccc(Cl)c3F)c2)N=C1N (stereo not shown) [Example 46, 2-amino-5-(3′-chloro-2′-fluorobiphenyl-3-yl)-3-methyl-5-[4-(pentafluoro-λ^6-sulfanyl)phenyl]-3,5-dihydro-4H-imidazol-4-one] | 694 nM |
| COc1ccc(F)c(-c2cccc(C3(c4ccc(S(F)(F)(F)(F)F)cc4)N=C(N)N(C)C3=O)c2)c1F (stereo not shown) [Example 47, 2-amino-5-(2′,6′-difluoro-3′-methoxybiphenyl-3-yl)-3-methyl-5-[4-(pentafluoro-λ^6-sulfanyl)phenyl]-3,5-dihydro-4H-imidazol-4-one] | 38 nM |
| CN1C(=O)C(c2cccc(S(F)(F)(F)(F)F)c2)(c2ccc(F)c(-c3cncnc3)c2)N=C1N (stereo not shown) [Example 48, 2-Amino-5-(4-fluoro-3-pyrimidin-5-ylphenyl)-3-methyl-5-[3-(pentafluoro-λ^6-sulfanyl)phenyl]-3,5-dihydro-4H-imidazol-4-one 0.25 acetate] | 487 nM |
| CN1C(=O)C(c2cccc(S(F)(F)(F)(F)F)c2)(c2ccc(F)c(-c3cncc(C#N)c3)c2)N=C1N (stereo not shown) [Example 49, 5-(5-{2-Amino-1-methyl-5-oxo-4-[3-(pentafluoro-λ^6-sulfanyl)phenyl]-4,5-dihydro-1H-imidazol-4-yl}-2-fluorophenyl)nicotinonitrile 0.25 acetate] | 1140 nM |
| CN1C(=O)C(c2cccc(S(F)(F)(F)(F)F)c2)(c2ccc(F)c(-c3cccnc3)c2)N=C1N (stereo not shown) [Example 50, 2-Amino-5-(4-fluoro-3-pyridin-3-ylphenyl)-3-methyl-5-[3-(pentafluoro-λ^6-sulfanyl)phenyl]-3,5-dihydro-4H-imidazol-4-one] | 317 nM |
| COc1cncc(-c2cc(C3(c4cccc(S(F)(F)(F)(F)F)c4)N=C(N)N(C)C3=O)ccc2F)c1 (stereo not shown) [Example 51, 2-Amino-5-[4-fluoro-3-(5-methoxypyridin-3-yl)phenyl]-[3-methyl-5-3-(pentafluoro-6-sulfanyl)phenyl]-3,5-dihydro-4H-imidazol-4-one] | 305 nM |
| CN1C(=O)C(c2cccc(S(F)(F)(F)(F)F)c2)(c2ccc(F)c(-c3cncc(F)c3)c2)N=C1N (stereo not shown) [Example 52, 2-Amino-5-[4-fluoro-3-(5-fluoropyridin-3-yl)phenyl]-3-methyl-5-[3-(pentafluoro-λ^6-sulfanyl)phenyl]-3,5-dihydro-4H-imidazol-4-one] | 1190 nM |
